Assay: Cyclic voltammetry of Cu(II) bis(thiosemicarbazonato) complexes (half-wave potentials and peak separations)
Assay type: physicochemical
Settings: DMF
Description: Voltametric experiments were performed with an Autolab (Eco Chemie, Utrecht, Netherlands) computer-controlled electrochemical workstation.
Recent studies have shown that in vivo stability of bifunctional chelators of copper is not only dependent on the thermodynamic stability and kinetic inertness of the complex but also the susceptibility to reduction of Cu(II) to Cu(I). Intracellular reductants with thiols, such as cysteine-rich metallothioneins, may act as effective reductants of Cu(II) and scavengers of the labile Cu(I) ions.

[1] = cyclic voltammogram, scan rate 0.1 V s^−1, glassy carbon electrode
[2] = cyclic voltammogram, scan rate 0.1 V s^−1, potentials relative to SCE, glassy carbon electrode

reversibility of the Cu(II)/Cu(I) reduction (cyclic voltammetry, glassy carbon electrode): quasi-reversible
Cu^II/Cu^I Epa − Epc (anodic to cathodic peak separation) [1]: 102 mV
Cu^III/Cu^II Epa − Epc (anodic to cathodic peak separation) [1]: 94 mV
Cu^II/Cu^I E1/2 [2]: -0.63 V
Cu^III/Cu^II E1/2 [2]: 0.75 V
E1/2 of Cu(II)/Cu(I) reduction (vs. SCE (Fc/Fc+ 0.54 V), glassy carbon working electrode): −0.63 V
Structure (SMILES): CN=C([S-])N/N=C(C)/C(C)=N/NC([S-])=NC.[Cu+2] [Cu^II(atsm)]
